From patent US20220409593A1 (ARKUDA THERAPEUTICS, priority 2019, published 2022) come the findings set out here.

This experiment has as its system secreted mouse PGRN. The experiment is described as follows: progranulin induction cellular assay (PGRN assay, ELISA-based readout). The following applies: progranulin secreted into cell culture medium, cells named in method: mouse primary microglia, primary cortical neurons, BV-2. As for the experimental part:
Cellular Assays: To measure the efficacy of compounds, a progranulin induction cellular assay in mouse primary microglia (pMG), primary cortical neurons, and BV-2 cell lines is used. BV-2 cells are split the day before plating into a 96well plate format at approximately 80%. Cells should be plated the day before and allowed for 1 hour attachment period and for 16 hour incubation. Levels of progranulin secreted into the cell culture medium or retained in the cell lysate can be quantified using an ELISA-based readout and measurement of secreted mouse PGRN in the medium was assessed by the methodology published by Ghidoni et al. 2012. Standard ELISA kits to measure PGRN are available from vendors such as Adipogen, R&D, and Biovendor.
Table D below presents the results of a PGRN assay as described above.
In general terms: ELISA stands for enzyme-linked immunosorbent assay.

As a reminder, the EC50 is the midpoint of the concentration-response curve. Higher therefore signals weaker potency. Consider `Fc1ccc([C@H]2c3ccccc3CCN2C2=NC[C@@]3(CCN(CCC(F)(F)F)C3)O2)cc1` [Compound 3174, (S)-2-((S)-1-(4-fluorophenyl)-3,4-dihydroisoquinolin-2(1H)-yl)-7-(3,3,3-trifluoropropyl)-1-oxa-3,7-diazaspiro[4.4]non-2-ene], for which the response (Mus musculus) was half-maximal at 1380 nM (EC50). Under “Mus musculus”, `Fc1cccc([C@H]2c3ccccc3CCN2C2=NC[C@]3(CN4CCC3CC4)O2)c1F` (single isomer, unassigned) [Compound 3019] showed an EC50 of 300 nM. On the same count and under the same terms, in the case of `CN1CC[C@@H](F)[C@]2(CN=C(N3CCc4ccccc4[C@@H]3c3ccc(F)cc3)O2)C1` (single isomer, unassigned) [Compound 3045] it was 4490 nM. Turning to `CN1CCC[C@]2(CN=C(N3CCc4ccccc4[C@@H]3c3cccc(F)c3)O2)C1` (single isomer, unassigned) [Compound 3006], the EC50 worked out at 1000 nM. Where the note is “Mus musculus”, `Fc1ccc([C@H]2c3ccccc3CCN2C2=N[C@H]([C@@H]3CCNC3)CO2)cc1` (single isomer, unassigned) [Compound 3071] had an EC50 of 429 nM. Same read-out and setting: then `Fc1ccc([C@H]2c3ccccc3CCN2C2=NC[C@@H]([C@@H]3CCCNC3)O2)cc1` (single isomer, unassigned) [Compound 3149], with 481 nM.

`Fc1ccc([C@H]2c3ccccc3CCN2C2=NC[C@@]3(CN4CCC3CC4)O2)cc1` (single isomer, unassigned) [Compound 3001]: the EC50 (Mus musculus) was 100 nM. Take `Fc1cccc([C@@H]2c3ccccc3CCN2C2=NC[C@]3(CN4CCC3CC4)O2)c1` (stereo in doubt) [Compound 3023]: for the setting “Mus musculus”, the midpoint of the response, the EC50, lay at 2170 nM.

Compound `Fc1ccc([C@H]2c3ccccc3CCN2C2=NCC3(CCNCC3)O2)cc1` [Compound 3060, (S)-2-(1-(4-fluorophenyl)-3,4-dihydroisoquinolin-2(1H)-yl)-1-oxa-3,8-diazaspiro[4.5]dec-2-ene] had an EC50 (Mus musculus) of 110 nM. Same read-out and setting: in the case of `Fc1ccc([C@H]2c3ccccc3CCN2C2=NC[C@]3(CCN(CCC(F)(F)F)C3)O2)cc1` [Compound 3173, (R)-2-((S)-1-(4-fluorophenyl)-3,4-dihydroisoquinolin-2(1H)-yl)-7-(3,3,3-trifluoropropyl)-1-oxa-3,7-diazaspiro[4.4]non-2-ene] it was 1040 nM. The same measure, in the same setting: in the case of `Fc1ccc([C@H]2c3ccccc3CCN2C2=NO[C@@]3(C2)CN2CCC3CC2)cc1` [Compound 3028, 2((S)-1-(4-fluorophenyl)-3,4-dihydroisoquinolin-2(1H)-yl)-4-4-azaspiro[bicyclo[2.2.2]octane-2,5oxazole]] it was greater than 3160 nM.

For the compound `Fc1ccc([C@H]2c3ccccc3CCN2C2=NC[C@]3(CN4CCC3(F)CC4)O2)cc1` (single isomer, unassigned) [Compound 3033], it took 2380 nM to reach a half-maximal effect (Mus musculus) (EC50).

Take `N[C@@H]1CC[C@]2(CN=C(N3CCc4ccccc4[C@@H]3c3ccc(F)cc3)O2)C1` (single isomer, unassigned) [Compound 3079]: the midpoint of the response (Mus musculus), the EC50, lay at 236 nM. On the same count and under the same terms, in the case of `Fc1ccc([C@H]2c3ccccc3CCN2C2=NC[C@]3(CN4CCC3CC4)O2)c(F)c1` (single isomer, unassigned) [Compound 3017] it was 260 nM. The same measure, in the same setting: in the case of `Fc1ccc([C@H]2c3ccccc3CCN2C2=NCC3(CNCCC3F)O2)cc1` (stereo partly drawn) [Compound 3035, 10-fluoro-2-((S)-1-(4-fluorophenyl)-3,4-dihydroisoquinolin-2(1H)-yl)-1-oxa-3,7-diazaspiro[4.5]dec-2-ene] it was 620 nM. In turn, `Fc1cc(F)cc([C@H]2c3ccccc3CCN2C2=NC[C@]3(CN4CCC3CC4)O2)c1` (stereo in doubt) [Compound 3039] yielded an EC50 of 1050 nM.

In turn, `Fc1ccc([C@H]2c3ccccc3CCN2C2=NC[C@]3(CN4CCC3CC4)O2)cc1F` (stereo in doubt) [Compound 3025] displayed an EC50 (Mus musculus) of 4060 nM. The same measure, in the same setting: then `CN1CCC[C@H]([C@@H]2CN=C(N3CCc4ccccc4[C@@H]3c3ccc(F)cc3)O2)C1` (single isomer, unassigned) [Compound 3152], with 406 nM.

Consider `Fc1ccc([C@H]2c3ccccc3CCN2C2=N[C@H](C3(F)CNC3)CO2)cc1` (single isomer, unassigned) [Compound 3157], for which a half-maximal response (Mus musculus) (EC50) required 77.7 nM.

As to `CN(C)[C@H]1C[C@]2(CN=C(N3CCc4ccccc4[C@@H]3c3ccc(F)cc3)O2)C1` (single isomer, unassigned) [Compound 3158], the EC50 (Mus musculus) came to 3580 nM. Same read-out and setting: then `Fc1cccc([C@@H]2c3ccccc3CCN2C2=NC[C@@]3(CN4CCC3CC4)O2)c1` (stereo in doubt) [Compound 3022], with 1490 nM. Regarding `O[C@H]1CNC[C@@]12CN=C(N1CCc3ccccc3[C@@H]1c1ccc(F)cc1)O2` [Compound 3178, (5R,9S)-2-((S)-1-(4-fluorophenyl)-3,4-dihydroisoquinolin-2(1H)-yl)-1-oxa-3,7-diazaspiro[4.4]non-2-en-9-ol], where the note is “Mus musculus”, the half-maximal effective concentration (EC50) turned out to be 249 nM. Take `Fc1ccc([C@H]2c3ccccc3CCN2C2=NC[C@@]3(CN4CCC3CC4)O2)cc1F` (stereo in doubt) [Compound 3024]: where the note is “Mus musculus”, the EC50 turned out to be 3960 nM. The compound `CN1CCC[C@@]2(CN=C(N3CCc4ccccc4[C@@H]3c3ccc(F)c(F)c3)O2)C1` (stereo in doubt) [Compound 3030] had an EC50 (Mus musculus) of 9650 nM. Compound `Fc1ccc([C@H]2c3ccccc3CCN2C2=NC[C@]3(CCN(CC(F)(F)F)C3)O2)cc1` [Compound 3171, (R)-2-((S)-1-(4-fluorophenyl)-3,4-dihydroisoquinolin-2(1H)-yl)-7-(2,2,2-trifluoroethyl)-1-oxa-3,7-diazaspiro[4.4]non-2-ene] registered an EC50 (Mus musculus) of 836 nM.

`Fc1ccc([C@H]2c3ccccc3CCN2C2=N[C@@H](C3CCNCC3)CO2)cc1` (single isomer, unassigned) [Compound 3133] showed an EC50 (Mus musculus) of 612 nM.

Where the note is “Mus musculus”, `CN1CCC[C@@]2(CN=C(N3CCc4ccccc4[C@@H]3c3ccc(F)cc3F)O2)C1` (single isomer, unassigned) [Compound 3015] returned an EC50 of 880 nM. Still for that read-out and setting: then `Fc1ccc([C@@H]2c3ccccc3CCN2C2=NC[C@@]3(CN4CCC3CC4)O2)cc1F` (stereo in doubt) [Compound 3026], with 310 nM.

In the case of `Fc1cccc([C@H]2c3ccccc3CCN2C2=NC[C@]3(CN4CCC3CC4)O2)c1` (stereo in doubt) [Compound 3021], the EC50 (Mus musculus) is greater than 10000 nM. The same measure, in the same setting: in the case of `Fc1ccc([C@H]2c3ccccc3CCN2C2=NC[C@]3(CCCNC3)O2)cc1` [Compound 3052] it was 440 nM.

Turning to `CN1CCC[C@@]2(CN=C(N3CCc4ccccc4[C@H]3c3cccc(F)c3F)O2)C1` (stereo in doubt) [Compound 3044], it took 5000 nM to reach a half-maximal effect (Mus musculus) (EC50). Same read-out and setting: in the case of `CN1CCC[C@]2(CN=C(N3CCc4ccccc4[C@@H]3c3cccc(F)c3F)O2)C1` (stereo in doubt) [Compound 3043] it was 3860 nM; in that of `N[C@@H]1CC[C@@]2(COC(N3CCc4ccccc4[C@@H]3c3ccc(F)cc3)=N2)C1` [Compound 3082, (5S,7R)-2-((S)-1-(4-fluorophenyl)-3,4-dihydroisoquinolin-2(1H)-yl)-3-oxa-1-azaspiro[4.4]non-1-en-7-amine], 160 nM. On the same count and under the same terms, then `Fc1ccc([C@H]2c3ccccc3CCN2C2=N[C@H]([C@H]3CCNC3)CO2)cc1` (single isomer, unassigned) [Compound 3072], with 330 nM; and `CN1CCC[C@]2(CN=C(N3CCc4ccccc4[C@@H]3c3cc(F)c(F)c(F)c3)O2)C1` (single isomer, unassigned) [Compound 3002], with 5080 nM; and `CN1CCC[C@@]2(CN=C(N3CCc4ccccc4[C@@H]3c3cc(F)c(F)c(F)c3)O2)C1` (single isomer, unassigned) [Compound 3003], with 4280 nM. Under “Mus musculus”, `CN1CCC[C@]2(CN=C(N3CCc4ccccc4[C@@H]3c3ccc(F)c(F)c3)O2)C1` (stereo in doubt) [Compound 3029] had an EC50 of 4020 nM. The same measure, in the same setting: then `Fc1ccc([C@H]2c3ccccc3CCN2C2=NC[C@H]([C@H]3CCCNC3)O2)cc1` (single isomer, unassigned) [Compound 3076], with greater than 10000 nM; and `CN1CC[C@@]2(CN=C(N3CCc4ccccc4[C@@H]3c3ccc(F)cc3)O2)C1` [Compound 3167, (S)-2-((S)-1-(4-fluorophenyl)-3,4-dihydroisoquinolin-2(1H)-yl)-7-methyl-1-oxa-3,7-diazaspiro[4.4]non-2-ene], with 176 nM. Same read-out and setting: then `Fc1ccc([C@H]2c3ccccc3CCN2C2=NC[C@@H](C3(F)CNC3)O2)cc1` (single isomer, unassigned) [Compound 3154], with 132 nM; and `Fc1ccc([C@H]2c3ccccc3CCN2C2=NC[C@@H]([C@H]3CCCNC3)O2)cc1` (single isomer, unassigned) [Compound 3077], with 475 nM. On to `CN1CCC[C@]2(CN=C(N3CCc4ccccc4[C@@H]3c3cc(F)c(F)c(F)c3)O2)C1` (single isomer, unassigned) [Compound 3004], for which the EC50 was greater than 10000 nM. On to `CN1CCC[C@]2(CN=C(N3CCc4ccccc4[C@@H]3c3ccc(F)cc3F)O2)C1` (single isomer, unassigned) [Compound 3014], for which the EC50 (Mus musculus) came out at 1680 nM.

`CN1CCC[C@@]2(CN=C(N3CCc4ccccc4[C@H]3c3cc(F)c(F)c(F)c3)O2)C1` (single isomer, unassigned) [Compound 3005] returned an EC50 (Mus musculus) greater than 10000 nM.

As for `CN1CCC[C@]2(CN=C(N3CCc4ccccc4[C@H]3c3cccc(F)c3)O2)C1` (single isomer, unassigned) [Compound 3008], the EC50 (Mus musculus) was greater than 10000 nM. As to `CN1CCC[C@@]2(CN=C(N3CCc4ccccc4[C@@H]3c3cccc(F)c3)O2)C1` (single isomer, unassigned) [Compound 3007], the EC50 (Mus musculus) amounted to 370 nM. On the same count and under the same terms, then `Fc1ccc([C@H]2c3ccccc3CCN2C2=N[C@H](C3CCNCC3)CO2)cc1` (single isomer, unassigned) [Compound 3134], with 312 nM.
